Assay [1] concerns the target hMC5-R (Homo sapiens, UniProt P33032). The experiment in a line: Competitive inhibition binding assay, 125I-NDP-α-MSH, hMC5-R membranes. To be noted: 1 μM test compound; 0.4 nM 125I-NDP-α-MSH; mean of triplicate; results less than 0% reported as 0%; read-out: Inhibition at 1 μM MC5-R. Here is the method: (§1) Competitive inhibition assay. A competitive inhibition binding assay was conducted using membranes prepared from hMC1-R or B-16 mouse melanoma cells (containing MC1-R), hMC3-R, hMC4-R, and hMC5-R, and using 0.4 nM ^125I-NDP-α-MSH (New England Nuclear, Boston, Mass., USA) in 50 mM HEPES buffer containing 1 mM MgCl2, 2 mM CaCl2, and 5 mM KCl, at pH 7.2. The assay tube also contained a chosen concentration of the test compound of this invention, typically a 1 μM concentration, for determining its efficacy in inhibiting the binding of ^125I-NDP-α-MSH to its receptor. Non-specific binding was measured by complete inhibition of binding of ^125I-NDP-α-MSH in the assay with the presence of 1 μM α-MSH.
(§2) Incubation was for 90 minutes at room temperature, after which the assay mixture was filtered and the membranes washed three times with ice cold buffer. The filter was dried and counted in a gamma counter for remaining radioactivity bound to the membranes. 100% specific binding was defined as the difference in radioactivity (cpm) bound to cell membranes in the absence and presence of 1 μM α-MSH. The cpm obtained in the presence of test compounds are normalized with respect to 100% specific binding to determine the percent inhibition of ^125I-NDP-a-MSH binding. Each assay was conducted in triplicate and the actual mean values are described, with results less than 0% reported as 0%.

For assay [2], the target named is hMC4-R (Homo sapiens, UniProt P32245). The experiment in a line: Competitive inhibition binding assay, 125I-NDP-α-MSH, hMC4-R membranes. To be noted: 1 μM test compound; 0.4 nM 125I-NDP-α-MSH; mean of triplicate; results less than 0% reported as 0%; read-out: Inhibition at 1 μM MC4-R. The method, then: as §1, §2
Chain of hMC4-R (P32245 whole entry): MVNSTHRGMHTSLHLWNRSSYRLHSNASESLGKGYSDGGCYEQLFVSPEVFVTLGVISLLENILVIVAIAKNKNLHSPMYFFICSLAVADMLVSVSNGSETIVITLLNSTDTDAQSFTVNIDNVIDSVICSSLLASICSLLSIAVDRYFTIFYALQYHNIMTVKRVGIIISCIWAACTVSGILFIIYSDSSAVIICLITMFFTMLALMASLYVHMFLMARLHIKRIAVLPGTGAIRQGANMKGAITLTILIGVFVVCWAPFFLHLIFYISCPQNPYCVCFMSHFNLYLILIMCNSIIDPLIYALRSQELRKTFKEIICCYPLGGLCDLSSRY
In assay [3] the target is T1, B-16 mouse melanoma cells (containing MC1-R) (Mus musculus, UniProt Q01727).
T1 construct: B-16 mouse melanoma cells (containing MC1-R); endogenous in cells; host or cells: B-16 mouse melanoma cells
T1 sequence (Q01727 whole entry): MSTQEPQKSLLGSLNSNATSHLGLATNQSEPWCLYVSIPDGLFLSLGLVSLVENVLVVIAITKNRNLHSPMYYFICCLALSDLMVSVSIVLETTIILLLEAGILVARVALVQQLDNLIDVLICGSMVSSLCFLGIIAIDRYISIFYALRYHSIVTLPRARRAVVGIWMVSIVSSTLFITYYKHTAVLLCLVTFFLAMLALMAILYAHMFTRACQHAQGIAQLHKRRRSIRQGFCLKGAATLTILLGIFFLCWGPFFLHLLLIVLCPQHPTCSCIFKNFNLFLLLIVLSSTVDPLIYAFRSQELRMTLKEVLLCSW
The experiment in a line: Competitive inhibition binding assay, 125I-NDP-α-MSH, B-16 mouse melanoma cell membranes. The conditions noted are these: 1 μM test compound; 0.4 nM 125I-NDP-α-MSH; mean of triplicate; results less than 0% reported as 0%; read-out: Inhibition at 1 μM MC1-R (murine). The method, then: as §1, §2

Assay [4] has as its target hMC3-R (Homo sapiens, UniProt P41968). The experiment in a line: Competitive inhibition binding assay, 125I-NDP-α-MSH, hMC3-R membranes. The conditions noted are these: 1 μM test compound; 0.4 nM 125I-NDP-α-MSH; mean of triplicate; results less than 0% reported as 0%; read-out: Inhibition at 1 μM MC3-R. The method, then:
as §1, §2

Chain of hMC5-R (P33032 whole entry): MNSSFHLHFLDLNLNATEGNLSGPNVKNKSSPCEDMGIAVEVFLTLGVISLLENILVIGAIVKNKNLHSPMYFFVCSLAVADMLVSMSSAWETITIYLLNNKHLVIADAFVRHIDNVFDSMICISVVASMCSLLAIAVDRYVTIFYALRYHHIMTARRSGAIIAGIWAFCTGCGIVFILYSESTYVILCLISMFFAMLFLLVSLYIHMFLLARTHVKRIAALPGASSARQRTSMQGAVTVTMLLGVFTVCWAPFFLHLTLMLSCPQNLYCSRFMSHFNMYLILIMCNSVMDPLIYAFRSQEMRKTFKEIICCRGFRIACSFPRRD
Chain of hMC3-R (P41968 whole entry): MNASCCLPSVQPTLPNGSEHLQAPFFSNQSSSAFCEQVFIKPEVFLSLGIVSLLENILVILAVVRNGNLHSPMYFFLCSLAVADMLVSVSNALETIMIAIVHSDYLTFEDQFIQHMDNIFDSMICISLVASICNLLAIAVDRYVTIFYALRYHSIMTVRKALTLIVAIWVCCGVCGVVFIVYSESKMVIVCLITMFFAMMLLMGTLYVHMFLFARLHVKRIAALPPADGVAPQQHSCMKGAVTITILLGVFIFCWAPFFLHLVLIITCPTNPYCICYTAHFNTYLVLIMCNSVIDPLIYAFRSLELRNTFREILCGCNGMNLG

`O=C(N[C@H](Cc1ccccc1Cl)C(=O)N1CCN[C@H](Cc2ccc3ccccc3c2)C1)[C@H]1Cc2ccccc2CN1` [Example 13, (R)-1,2,3,4-Tetrahydro-isoquinoline-3-carboxylic acid [(R)-1-(2-chloro-benzyl)-2-((R)-3-naphthalen-2-ylmethyl-piperazin-1-yl)-2-oxo-ethyl]-amide]: the inhibition at 1 µM in assay [1] was 20%; in assay [2], 19%; in assay [3], 24%; in assay [4] it was 17%.

Consider `N[C@@H](COCc1ccccc1)C(=O)N[C@H](Cc1ccccc1Cl)C(=O)N1CCN[C@H](Cc2ccc3ccccc3c2)C1` [Example 14, (S)-2-Amino-3-benzyloxy-N—[(R)-1-(2-chloro-benzyl)-2-((R)-3-naphthalen-2-ylmethyl-piperazin-1-yl)-2-oxo-ethyl]-propionamide], for which the inhibition at 1 µM in assay [1] amounted to 23%; in assay [2], 56%; in assay [3], 46%; in assay [4], 33%.

With `N[C@H](Cc1ccc(Cl)cc1)C(=O)N1CCN[C@H](Cc2ccc3ccccc3c2)C1` [Example 19, (R)-2-Amino-3-(4-chloro-phenyl)-1-((R)-3-naphthalen-2-ylmethyl-piperazin-1-yl)-propan-1-one], the inhibition at 1 µM in assay [1] turned out to be 0%; in assay [2] it was 21%; in assay [3], 5%; in assay [4], 0%.

Consider `N[C@H](Cc1ccc2ccccc2c1)C(=O)N1C[C@@H](Cc2ccccc2)NC[C@@H]1Cc1ccccc1` [Example 15, (R)-2-Amino-1-((2S,5R)-2,5-dibenzyl-piperazin-1-yl)-3-naphthalen-2-yl-propan-1-one], for which the inhibition at 1 µM in assay [1] is 3%; in assay [2], 18%; in assay [3] it was 0%; in assay [4], 0%.

Turning to `O=C(CCCc1ccccc1)N[C@H](Cc1ccc(Cl)cc1)C(=O)N1CCN[C@H](Cc2ccc3ccccc3c2)C1` [Example 24, N—[(R)-1-(4-Chloro-benzyl)-2-((R)-3-naphthalen-2-ylmethyl-piperazin-1-yl)-2-oxo-ethyl]-4-phenyl-butyramide], the inhibition at 1 µM was found to be 13% in assay [1], 20% in assay [2], 5% in assay [3] and 3% in assay [4].

In the case of `CC(=O)Oc1ccccc1C(=O)N[C@H](Cc1ccc(Cl)cc1)C(=O)N1CCN[C@H](Cc2ccc3ccccc3c2)C1` [Example 27], the inhibition at 1 µM in assay [1] is 0%; in assay [2], 4%; in assay [3] it was 10%; in assay [4] it was 0%.

On to `N[C@H](Cc1ccccc1Cl)C(=O)N1CCN[C@H](Cc2ccc3ccccc3c2)C1` [Example 11, (R)-2-Amino-3-(2-chloro-phenyl)-1-((R)-3-naphthalen-2-ylmethyl-piperazin-1-yl)-propan-1-one], for which the inhibition at 1 µM in assay [1] amounted to 0%; in assay [2], 9%; in assay [3], 4%; in assay [4], 19%.

As to `Cc1ccc(S(=O)(=O)N[C@H](Cc2ccc(Cl)cc2)C(=O)N2CCN[C@H](Cc3ccc4ccccc4c3)C2)cc1` [Example 26, N—[(R)-1-(4-Chloro-benzyl)-2-((R)-3-naphthalen-2-ylmethyl-piperazin-1-yl)-2-oxo-ethyl]-4-methyl-benzenesulfonamide], the inhibition at 1 µM was determined as 20% in assay [1], 22% in assay [2], 10% in assay [3] and 14% in assay [4].

Consider `N[C@@H](COCc1ccccc1)C(=O)N[C@H](Cc1ccc(Cl)cc1)C(=O)N1CCN[C@H](Cc2ccc3ccccc3c2)C1` [Example 22, (S)-2-Amino-3-benzyloxy-N—[(R)-1-(4-chloro-benzyl)-2-((R)-3-naphthalen-2-ylmethyl-piperazin-1-yl)-2-oxo-ethyl]-propionamide], for which the inhibition at 1 µM in assay [1] came out at 27%; in assay [2], 36%; in assay [3], 2%; in assay [4], 54%.

With `N[C@@H](Cc1c[nH]cn1)C(=O)N[C@H](Cc1ccccc1Cl)C(=O)N1CCN[C@H](Cc2ccc3ccccc3c2)C1` [Example 12, (S)-2-Amino-N—[(R)-1-(2-chloro-benzyl)-2-((R)-3-naphthalen-2-ylmethyl-piperazin-1-yl)-2-oxo-ethyl]-3-(1H-imidazol-4-yl)-propionamide], the inhibition at 1 µM in assay [1] was found to be 12%; in assay [2] it was 0%; in assay [3] it was 52%; in assay [4], 18%.

As for `N[C@@H](Cc1ccccc1)C(=O)N1C[C@H](Cc2ccccc2)NC[C@H]1Cc1ccccc1` [Example 9, (S)-2-Amino-1-((2R,5S)-2,5-dibenzyl-piperazin-1-yl)-3-phenyl-propan-1-one], the inhibition at 1 µM in assay [1], in assay [2], in assay [3] and in assay [4] was 0% throughout.

`N[C@H](Cc1ccc(Cl)cc1Cl)C(=O)N1C[C@H](Cc2ccccc2)NC[C@H]1Cc1ccccc1` [Example 10, (R)-2-Amino-1-((2R,5S)-2,5-dibenzyl-piperazin-1-yl)-3-(2,4-dichloro-phenyl)-propan-1-one]: the inhibition at 1 µM in assay [1] was 0%; in assay [2] it was 13%; in assay [3] it was 0%; in assay [4], 0%.

With `N[C@@H](Cc1c[nH]cn1)C(=O)N[C@H](Cc1ccc(Cl)cc1)C(=O)N1CCN[C@H](Cc2ccc3ccccc3c2)C1` [Example 20, (S)-2-Amino-N—[(R)-1-(4-chloro-benzyl)-2-((R)-3-naphthalen-2-ylmethyl-piperazin-1-yl)-2-oxo-ethyl]-3-(1H-imidazol-4-yl)-propionamide], the inhibition at 1 µM in assay [1] came out at 0%; in assay [2] it was 25%; in assay [3], 71%; in assay [4], 18%.

Take `CCCC(CCC)C(=O)N[C@H](Cc1ccc(Cl)cc1)C(=O)N1CCN[C@H](Cc2ccc3ccccc3c2)C1` [Example 28, 2-Propyl-pentanoic acid [(R)-1-(4-chloro-benzyl)-2-((R)-3-naphthalen-2-ylmethyl-piperazin-1-yl)-2-oxo-ethyl]-amide]: the inhibition at 1 µM in assay [1] was -4%; in assay [2] it was 38%; in assay [3], 0%; in assay [4], 0%.

`O=C(Cc1ccccc1)N[C@H](Cc1ccc(Cl)cc1)C(=O)N1CCN[C@H](Cc2ccc3ccccc3c2)C1` [Example 25, N—[(R)-1-(4-Chloro-benzyl)-2-((R)-3-naphthalen-2-ylmethyl-piperazin-1-yl)-2-oxo-ethyl]-2-phenyl-acetamide]: the inhibition at 1 µM turned out to be 18% in assay [1], 19% in assay [2], 5% in assay [3] and 6% in assay [4].

As to `CC(=O)N[C@H](Cc1ccc(Cl)cc1)C(=O)N1CCN[C@H](Cc2ccc3ccccc3c2)C1` [Example 23, N—[(R)-1-(4-Chloro-benzyl)-2-((R)-3-naphthalen-2-ylmethyl-piperazin-1-yl)-2-oxo-ethyl]-acetamide], the inhibition at 1 µM was 4% in assay [1], 13% in assay [2], 6% in assay [3] and 0% in assay [4].

On to `N[C@H](Cc1ccc2ccccc2c1)C(=O)N1C[C@H](Cc2ccccc2)NC[C@H]1Cc1ccccc1` [Example 8, (R)-2-Amino-1-((2R,5S)-2,5-dibenzyl-piperazin-1-yl)-3-naphthalen-2-yl-propan-1-one], for which the inhibition at 1 µM in assay [1] was 10%; in assay [2], 0%; in assay [3], 0%; in assay [4], 0%.

Take `N[C@@H](Cc1ccccc1)C(=O)N1C[C@@H](Cc2ccccc2)NC[C@@H]1Cc1ccccc1` [Example 18, (S)-2-Amino-1-((2S,5R)-2,5-dibenzyl-piperazin-1-yl)-3-phenyl-propan-1-one]: the inhibition at 1 µM was found to be 12% in assay [1], 8% in assay [2], 0% in assay [3] and 0% in assay [4].

For `N[C@H](Cc1ccc(Cl)cc1Cl)C(=O)N1C[C@@H](Cc2ccccc2)NC[C@@H]1Cc1ccccc1` [Example 16, (R)-2-Amino-1-((2S,5R)-2,5-dibenzyl-piperazin-1-yl)-3-(2,4-dichloro-phenyl)-propan-1-one], the inhibition at 1 µM in assay [1] was 0%; in assay [2], 14%; in assay [3] it was 0%; in assay [4] it was 0%.

These data come from patent US7709484B1, “Substituted melanocortin receptor-specific piperazine compounds” (Palatin Technologies, Inc., priority 2004, dated 2010).
